Publication PMC8262356, “SLC26A6-selective inhibitor identified in a small-molecule screen blocks fluid absorption in small intestine” (JCI Insight, 2021)

Target: T1, slc26a2 (Mus musculus, UniProt Q62273)
T1 construct: Full -length slc26a2 cDNAs; expressed in transfected cells; host or cells: 293 T/17 cells, transient transfection with pIRES-HIF vector (IRES-YFP, not fused)
T1 sequence (Q62273 1-739): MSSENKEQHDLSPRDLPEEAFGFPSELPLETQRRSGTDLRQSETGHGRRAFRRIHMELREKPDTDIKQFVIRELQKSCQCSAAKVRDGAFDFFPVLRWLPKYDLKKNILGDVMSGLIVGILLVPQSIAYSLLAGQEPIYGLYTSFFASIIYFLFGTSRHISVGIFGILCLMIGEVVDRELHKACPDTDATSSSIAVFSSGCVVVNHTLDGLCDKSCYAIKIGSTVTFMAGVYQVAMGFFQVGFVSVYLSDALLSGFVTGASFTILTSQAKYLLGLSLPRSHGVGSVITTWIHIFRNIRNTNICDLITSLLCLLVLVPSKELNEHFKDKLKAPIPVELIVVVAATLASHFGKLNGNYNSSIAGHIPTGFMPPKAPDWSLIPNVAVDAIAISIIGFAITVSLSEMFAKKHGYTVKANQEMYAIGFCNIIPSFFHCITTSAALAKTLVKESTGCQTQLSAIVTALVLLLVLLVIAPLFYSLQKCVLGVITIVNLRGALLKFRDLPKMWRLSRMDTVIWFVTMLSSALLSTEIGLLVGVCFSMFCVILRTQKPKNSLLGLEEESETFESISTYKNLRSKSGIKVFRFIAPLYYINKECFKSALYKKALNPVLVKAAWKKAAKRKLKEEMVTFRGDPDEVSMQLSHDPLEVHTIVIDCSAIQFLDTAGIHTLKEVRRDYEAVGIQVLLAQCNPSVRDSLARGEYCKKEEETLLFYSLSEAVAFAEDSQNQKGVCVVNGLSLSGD
Experiment: Selectivity: Cl-/I- exchange in 293T/17 cells transfected with slc26a2 and YFP
Assay type: cell-based
Conditions: 25 μM, 10 min preincubation
Method: YFP-based cellular assays of slc26a3, slc26a4, SLC26A9, and TMEM16A function were performed as described previously ([7]). Slc26a1 and slc26a2 assays were done in transfected HEK 293 cells (see Supplemental Methods for details). Niflumic acid was used as a positive control for SLC26A isoforms ([7]). For TMEM16A, the selective small-molecule inhibitor TMinh-23 was used as a positive control ([28]). The activities of ENaC, CFTR, and CaCC were determined using well-differentiated HBE cells as described previously ([13]). Cl^–/HCO3^– exchange was measured as described previously ([7], [10], [11]). Briefly, cell cytoplasm was labeled with the pH-sensitive fluorescent dye BCECF-AM (Invitrogen), and Cl^–/HCO3^– exchange was measured in response to addition of a gluconate-containing solution to drive exchange of cytoplasmic Cl^– for extracellular HCO3^–, producing cytoplasmic alkalinization.
Slc26a1 and slc26a2 cDNA constructs
The complementar y DNA sequences of slc26a1 and slc26a2 were generated using gB LOCK gene fragments (Int egrat ed DNA technology, Coralville, IA) in the plasmid vector pIRESpuro3 (Takara, San J ose, CA). […]
PBS. […] Background-corrected, area-integrat ed single cell fluorescence was calcul ated for determination of slc26a1 / slc26a2 activit y from the rate of fluorescence quenching. […]

Structure (SMILES): Cc1c(Br)c(C(F)(F)F)nn1CC(=O)N1CCc2nc3cc(-c4ccccc4)[nH]n3c(=O)c2C1 [PAT1inh-B01]
- effect on slc26a2 activity: did not affect
